Reference: BindingDB's records for doi:10.1016/S0960-894X(01)00722-3 (Janssen-Cilag, 2001)

How the values were obtained:
[1] = target: T1, 5-hydroxytryptamine receptor 2C (Homo sapiens, UniProt P28335); assay: ChEBML_2740
T1 sequence (P28335 whole entry): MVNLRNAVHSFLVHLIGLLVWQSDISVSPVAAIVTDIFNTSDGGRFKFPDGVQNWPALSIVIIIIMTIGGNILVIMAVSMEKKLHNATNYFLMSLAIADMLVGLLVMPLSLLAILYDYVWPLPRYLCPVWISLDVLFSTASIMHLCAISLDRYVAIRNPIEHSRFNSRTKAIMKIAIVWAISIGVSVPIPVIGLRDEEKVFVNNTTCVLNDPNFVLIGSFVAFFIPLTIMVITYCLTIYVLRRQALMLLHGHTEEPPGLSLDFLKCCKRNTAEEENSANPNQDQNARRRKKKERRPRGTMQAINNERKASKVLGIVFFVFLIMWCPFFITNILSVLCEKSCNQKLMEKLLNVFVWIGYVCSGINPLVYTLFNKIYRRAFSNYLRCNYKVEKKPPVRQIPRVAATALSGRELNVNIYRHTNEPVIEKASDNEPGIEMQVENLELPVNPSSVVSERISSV
Description: Binding affinity at human cloned 5-hydroxytryptamine 2C receptor expressed in CHO cells by [3H]mesulergine displacement.

Histamine H1 receptor = Histamine H1 receptor (Homo sapiens, UniProt P35367); assay: ChEBML_84541
Sequence of Histamine H1 receptor (P35367 whole entry): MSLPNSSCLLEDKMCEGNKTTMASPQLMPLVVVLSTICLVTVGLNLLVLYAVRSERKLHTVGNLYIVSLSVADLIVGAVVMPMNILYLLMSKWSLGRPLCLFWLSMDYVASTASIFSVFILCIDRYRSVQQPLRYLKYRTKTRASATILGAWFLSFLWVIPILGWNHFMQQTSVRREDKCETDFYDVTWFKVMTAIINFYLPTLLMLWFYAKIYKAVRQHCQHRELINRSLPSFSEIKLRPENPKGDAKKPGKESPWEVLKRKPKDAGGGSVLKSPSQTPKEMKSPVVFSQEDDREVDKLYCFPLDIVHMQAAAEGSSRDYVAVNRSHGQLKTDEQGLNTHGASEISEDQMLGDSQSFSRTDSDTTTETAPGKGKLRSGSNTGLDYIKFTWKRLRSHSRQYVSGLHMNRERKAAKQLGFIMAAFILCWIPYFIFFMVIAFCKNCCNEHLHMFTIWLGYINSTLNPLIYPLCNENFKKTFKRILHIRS
Description: Binding affinity at human cloned Histamine H1 receptor expressed in CHO cells by [3H]pyrilamine displacement.

[2] = target: T2, 5-hydroxytryptamine receptor 2A (Homo sapiens, UniProt P28223); assay: ChEBML_2507
T2 sequence (P28223 whole entry): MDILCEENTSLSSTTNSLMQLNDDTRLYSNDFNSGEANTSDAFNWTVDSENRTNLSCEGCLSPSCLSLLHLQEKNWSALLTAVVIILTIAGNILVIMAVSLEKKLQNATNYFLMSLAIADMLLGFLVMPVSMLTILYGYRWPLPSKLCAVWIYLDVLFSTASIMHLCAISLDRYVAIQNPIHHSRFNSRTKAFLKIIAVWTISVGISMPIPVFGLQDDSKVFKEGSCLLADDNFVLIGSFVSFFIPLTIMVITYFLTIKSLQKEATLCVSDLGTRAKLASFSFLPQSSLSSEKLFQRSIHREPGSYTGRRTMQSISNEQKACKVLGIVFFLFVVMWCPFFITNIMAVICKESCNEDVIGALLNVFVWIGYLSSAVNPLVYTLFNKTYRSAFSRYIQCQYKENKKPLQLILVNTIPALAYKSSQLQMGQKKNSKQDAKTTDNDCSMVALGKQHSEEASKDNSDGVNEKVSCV
Description: (§1) Binding affinity for human cloned 5-HT2A receptor expressed in L929 cells using [125I]R91150 as radioligand

[3] = target: 5-hydroxytryptamine receptor 1D (Homo sapiens, UniProt P28221); assay: ChEBML_1745
Sequence of 5-hydroxytryptamine receptor 1D (P28221 whole entry): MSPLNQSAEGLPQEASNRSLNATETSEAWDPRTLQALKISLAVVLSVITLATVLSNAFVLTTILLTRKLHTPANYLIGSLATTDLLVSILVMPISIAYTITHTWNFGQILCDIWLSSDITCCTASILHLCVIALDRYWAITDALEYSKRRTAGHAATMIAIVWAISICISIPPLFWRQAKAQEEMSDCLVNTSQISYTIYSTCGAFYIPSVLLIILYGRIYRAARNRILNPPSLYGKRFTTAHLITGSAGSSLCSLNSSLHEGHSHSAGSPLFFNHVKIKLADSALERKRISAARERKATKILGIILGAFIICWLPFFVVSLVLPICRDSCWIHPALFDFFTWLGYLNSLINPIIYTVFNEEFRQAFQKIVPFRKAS
Description: Binding affinity for human cloned 5-hydroxytryptamine 1D receptor

D(2) dopamine receptor [4] = target: D(2) dopamine receptor (Homo sapiens, UniProt P14416); assay: ChEBML_61646
Sequence of D(2) dopamine receptor (Homo sapiens, UniProt P14416) (P14416 whole entry): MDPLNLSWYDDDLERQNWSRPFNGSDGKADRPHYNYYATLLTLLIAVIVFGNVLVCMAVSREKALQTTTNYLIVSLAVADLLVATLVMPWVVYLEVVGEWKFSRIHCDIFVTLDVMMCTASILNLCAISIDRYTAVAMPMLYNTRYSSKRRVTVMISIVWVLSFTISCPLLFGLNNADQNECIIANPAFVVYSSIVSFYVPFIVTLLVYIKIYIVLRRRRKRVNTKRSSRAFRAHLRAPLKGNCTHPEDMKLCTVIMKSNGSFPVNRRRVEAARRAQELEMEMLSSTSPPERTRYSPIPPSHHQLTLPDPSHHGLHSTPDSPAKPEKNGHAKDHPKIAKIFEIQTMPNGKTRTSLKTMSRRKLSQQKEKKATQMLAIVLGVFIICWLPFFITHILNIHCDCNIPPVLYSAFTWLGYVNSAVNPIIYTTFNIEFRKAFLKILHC
Description: Binding affinity for human cloned Dopamine receptor D2L

[5] = target: T3, Alpha-2C adrenergic receptor (Homo sapiens, UniProt P18825); assay: ChEBML_33661
T3 sequence (P18825 whole entry): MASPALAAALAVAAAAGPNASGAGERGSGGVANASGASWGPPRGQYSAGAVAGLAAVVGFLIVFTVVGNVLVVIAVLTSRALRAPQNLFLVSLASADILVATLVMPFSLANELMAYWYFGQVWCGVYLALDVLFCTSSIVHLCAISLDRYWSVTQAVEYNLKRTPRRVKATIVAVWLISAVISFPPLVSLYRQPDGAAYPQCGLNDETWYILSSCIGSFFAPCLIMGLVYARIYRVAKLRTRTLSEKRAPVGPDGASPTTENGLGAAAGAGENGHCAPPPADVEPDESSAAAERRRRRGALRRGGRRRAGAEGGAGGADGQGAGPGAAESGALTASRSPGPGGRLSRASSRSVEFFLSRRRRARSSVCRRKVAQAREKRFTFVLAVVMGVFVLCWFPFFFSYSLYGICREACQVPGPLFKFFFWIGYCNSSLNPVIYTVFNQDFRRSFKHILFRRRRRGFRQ
Description: Binding affinity for human cloned Alpha-2C adrenergic receptor

[6] = target: T4, Alpha-2A adrenergic receptor (Homo sapiens, UniProt P08913); assay: ChEBML_33198
T4 sequence (P08913 whole entry): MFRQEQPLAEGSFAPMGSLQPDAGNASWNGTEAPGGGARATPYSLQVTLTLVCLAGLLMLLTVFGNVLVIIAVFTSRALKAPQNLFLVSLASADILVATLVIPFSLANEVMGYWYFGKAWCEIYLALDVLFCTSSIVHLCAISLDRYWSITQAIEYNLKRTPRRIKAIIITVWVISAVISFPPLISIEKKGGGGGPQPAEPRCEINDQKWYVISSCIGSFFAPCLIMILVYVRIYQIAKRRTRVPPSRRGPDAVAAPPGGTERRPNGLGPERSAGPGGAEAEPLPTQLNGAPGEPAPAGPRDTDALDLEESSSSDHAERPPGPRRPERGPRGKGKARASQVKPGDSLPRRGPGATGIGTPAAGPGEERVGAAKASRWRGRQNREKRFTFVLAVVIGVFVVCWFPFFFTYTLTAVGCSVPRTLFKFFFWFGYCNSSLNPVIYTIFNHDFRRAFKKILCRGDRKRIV
Description: Binding affinity for human cloned Alpha-2A adrenergic receptor

D(4) dopamine receptor = target: T5, D(4) dopamine receptor (Homo sapiens, UniProt P21917); assay: ChEBML_60841
T5 sequence (P21917 whole entry): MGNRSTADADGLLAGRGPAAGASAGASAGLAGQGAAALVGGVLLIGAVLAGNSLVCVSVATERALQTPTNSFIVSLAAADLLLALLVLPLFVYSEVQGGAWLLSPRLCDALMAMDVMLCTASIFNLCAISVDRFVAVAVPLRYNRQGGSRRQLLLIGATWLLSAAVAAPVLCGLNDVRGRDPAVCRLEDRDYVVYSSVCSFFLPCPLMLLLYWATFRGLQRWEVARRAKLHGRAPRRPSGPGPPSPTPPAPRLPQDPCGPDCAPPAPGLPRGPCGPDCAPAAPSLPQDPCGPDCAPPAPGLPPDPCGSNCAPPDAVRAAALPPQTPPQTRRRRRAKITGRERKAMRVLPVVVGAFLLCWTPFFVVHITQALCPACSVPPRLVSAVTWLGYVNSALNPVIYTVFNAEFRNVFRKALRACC
Description: Binding affinity for human cloned Dopamine receptor D4

D(2) dopamine receptor [7] = target: D(2) dopamine receptor (Rattus norvegicus, UniProt P61169); assay: ChEBML_60811
Sequence of D(2) dopamine receptor (Rattus norvegicus, UniProt P61169) (P61169 whole entry): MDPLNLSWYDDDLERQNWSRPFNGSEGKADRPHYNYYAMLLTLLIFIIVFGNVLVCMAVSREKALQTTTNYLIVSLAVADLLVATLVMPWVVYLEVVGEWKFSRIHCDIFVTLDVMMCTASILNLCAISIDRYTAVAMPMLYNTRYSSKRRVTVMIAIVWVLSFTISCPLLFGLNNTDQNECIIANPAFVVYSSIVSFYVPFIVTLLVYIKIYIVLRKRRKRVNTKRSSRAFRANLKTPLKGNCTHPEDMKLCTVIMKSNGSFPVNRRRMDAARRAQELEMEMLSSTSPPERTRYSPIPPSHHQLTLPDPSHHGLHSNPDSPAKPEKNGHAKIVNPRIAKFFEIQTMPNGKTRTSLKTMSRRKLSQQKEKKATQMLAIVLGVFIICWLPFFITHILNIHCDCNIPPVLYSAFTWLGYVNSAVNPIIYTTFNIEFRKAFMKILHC
Description: Binding affinity for rat Dopamine receptor D2

[8] = target: T6, Alpha-1A adrenergic receptor (Homo sapiens, UniProt P35348); assay: ChEBML_33869
T6 sequence (P35348 whole entry): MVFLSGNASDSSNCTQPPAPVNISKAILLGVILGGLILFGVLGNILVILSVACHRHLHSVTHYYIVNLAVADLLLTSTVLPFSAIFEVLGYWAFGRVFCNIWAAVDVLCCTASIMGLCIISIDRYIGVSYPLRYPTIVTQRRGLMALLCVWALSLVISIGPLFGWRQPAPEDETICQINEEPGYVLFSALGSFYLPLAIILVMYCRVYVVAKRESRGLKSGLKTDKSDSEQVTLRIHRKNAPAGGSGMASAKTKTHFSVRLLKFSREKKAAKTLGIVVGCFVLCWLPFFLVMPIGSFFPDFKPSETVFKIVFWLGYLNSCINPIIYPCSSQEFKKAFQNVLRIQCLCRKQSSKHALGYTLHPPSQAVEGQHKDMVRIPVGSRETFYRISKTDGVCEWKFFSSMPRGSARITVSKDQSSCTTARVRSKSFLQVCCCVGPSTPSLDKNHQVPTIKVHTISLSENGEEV
Description: Binding affinity for human cloned Alpha-1A adrenergic receptor

[9] = target: T7, 5-hydroxytryptamine receptor 1A (Homo sapiens, UniProt P08908); assay: ChEBML_1016
T7 sequence (P08908 whole entry): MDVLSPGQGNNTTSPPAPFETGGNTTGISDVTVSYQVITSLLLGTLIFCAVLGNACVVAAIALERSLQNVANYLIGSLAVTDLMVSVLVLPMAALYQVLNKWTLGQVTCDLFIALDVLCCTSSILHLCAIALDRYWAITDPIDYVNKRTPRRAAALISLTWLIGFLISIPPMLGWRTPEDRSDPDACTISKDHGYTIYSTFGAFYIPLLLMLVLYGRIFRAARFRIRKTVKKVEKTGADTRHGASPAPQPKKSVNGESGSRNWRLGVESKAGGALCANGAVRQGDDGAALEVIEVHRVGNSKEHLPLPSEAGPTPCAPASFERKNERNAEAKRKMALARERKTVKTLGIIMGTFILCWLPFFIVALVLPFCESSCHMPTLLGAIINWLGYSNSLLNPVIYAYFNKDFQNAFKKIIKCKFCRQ
Description: Binding affinity for human cloned 5-hydroxytryptamine 1A receptor

D(3) dopamine receptor = D(3) dopamine receptor (Homo sapiens, UniProt P35462); assay: ChEBML_62451
Sequence of D(3) dopamine receptor (P35462 as listed by the source): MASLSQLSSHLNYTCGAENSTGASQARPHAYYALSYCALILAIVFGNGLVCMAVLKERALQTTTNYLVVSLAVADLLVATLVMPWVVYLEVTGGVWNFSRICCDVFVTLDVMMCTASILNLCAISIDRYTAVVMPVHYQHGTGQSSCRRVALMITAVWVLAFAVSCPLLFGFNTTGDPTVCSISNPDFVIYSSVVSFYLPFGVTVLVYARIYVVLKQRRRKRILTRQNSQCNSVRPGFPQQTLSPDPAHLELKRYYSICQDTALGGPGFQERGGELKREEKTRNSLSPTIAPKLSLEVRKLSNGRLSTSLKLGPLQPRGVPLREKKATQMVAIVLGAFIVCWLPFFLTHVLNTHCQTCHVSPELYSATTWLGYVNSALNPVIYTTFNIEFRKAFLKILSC
Description: Binding affinity for human cloned Dopamine receptor D3

[10] = target: T2, 5-hydroxytryptamine receptor 2A; assay: as §1

Row | SMILES | IC50 [1] [nM] | IC50 (Histamine H1 receptor) [nM] | IC50 [2] [nM] | IC50 [3] [nM] | IC50 (D(2) dopamine receptor [4]) [nM] | IC50 [5] [nM] | IC50 [6] [nM] | IC50 (D(4) dopamine receptor) [nM] | IC50 (D(2) dopamine receptor [7]) [nM] | IC50 [8] [nM] | IC50 [9] [nM] | IC50 (D(3) dopamine receptor) [nM] | IC50 [10] [nM]
1 | Cc1cccc2c1C1CC(CN(C)C)ON1c1ccccc1C2 (configuration not stated) | 30 | 12 | 48 | – | – | – | – | – | – | – | – | – | –
2 | COc1ccc2c(c1)C1CC(CN(C)C)ON1c1ccccc1C2 (configuration not stated) | 19 | 14 | 302 | – | – | – | – | – | – | – | – | – | –
3 | CN(C)CC1CC2c3ccccc3Cc3cc(F)ccc3N2O1 (configuration not stated) | 4.7 | 1.3 | 6.9 | – | – | – | – | – | – | – | – | – | –
4 | Cc1cccc2c1Cc1ccccc1C1CC(CN(C)C)ON21 (configuration not stated) | 3.9 | 6 | 91 | – | – | – | – | – | – | – | – | – | –
5 | Cc1ccc2c(c1)Cc1ccccc1N1OC(CN(C)C)CC21 (configuration not stated) | 6.3 | 16 | – | – | – | – | – | – | – | – | – | – | –
6 | CN(C)CC1CC2c3ccccc3Cc3ccc(F)cc3N2O1 (configuration not stated) | – | 2.6 | – | 302 | 36 | 1170 | 501 | 14 | < 1000 | 45 | 1590 | 14 | –
7 | CN(C)CC1CC2c3c(cccc3C(F)(F)F)Cc3ccccc3N2O1 (configuration not stated) | 7.6 | 48 | 68 | – | – | – | – | – | – | – | – | – | –
8 | CN(C)CC1CC2c3c(F)cccc3Cc3ccccc3N2O1 (configuration not stated) | < 1000 | < 1000 | < 1000 | – | – | – | – | – | – | – | – | – | –
9 | CN(C)CC1CC2c3ccccc3Cc3cccc(Cl)c3N2O1 (configuration not stated) | 10 | 15 | 32 | – | – | – | – | – | – | – | – | – | –
10 | CN(C)CC1CC2c3cc(F)ccc3Cc3ccc(F)cc3N2O1 (configuration not stated) | 6.2 | 17 | – | < 1000 | 447 | < 1000 | < 1000 | < 1000 | – | 162 | < 1000 | < 1000 | –
11 | CN(C)CC1CC2c3cccc(C(F)(F)F)c3Cc3ccccc3N2O1 (configuration not stated) | 437 | 37 | 1000 | – | – | – | – | – | – | – | – | – | –
12 | CN(C)CC1CC2c3ccccc3Cc3ccc(-c4ccccc4)cc3N2O1 (configuration not stated) | 11 | 7.9 | – | – | – | – | – | – | – | – | – | – | 22
13 | Cc1ccc2c(c1)N1OC(CN(C)C)CC1c1ccccc1C2 (configuration not stated) | 3 | 5.9 | 3.1 | < 1000 | 55 | < 1000 | < 1000 | < 1000 | < 1000 | 43 | < 1000 | < 1000 | –
14 | CN(C)CC1CC2c3ccccc3Cc3c(F)cccc3N2O1 (configuration not stated) | 5 | 1.7 | 24 | – | – | – | – | – | – | – | – | – | –
15 | CN(C)CC1CC2c3cccc(Cl)c3Cc3ccccc3N2O1 (configuration not stated) | < 1000 | < 1000 | < 1000 | – | – | – | – | – | – | – | – | – | –
16 | CN(C)CC1CC2c3cc(C(F)(F)F)ccc3Cc3ccccc3N2O1 (configuration not stated) | < 1000 | < 1000 | < 1000 | – | – | – | – | – | – | – | – | – | –
17 | CN(C)CC1CC2c3cc(F)ccc3Cc3ccccc3N2O1 (configuration not stated) | 11 | 3.8 | 54 | – | – | – | – | – | – | – | – | – | –
18 | CN(C)CC1CC2c3cccc(F)c3Cc3ccccc3N2O1 (configuration not stated) | 12 | 2.3 | – | – | – | – | – | – | – | – | – | – | –
19 | CN(C)CC1CC2c3ccccc3Cc3ccc(Cl)cc3N2O1 (configuration not stated) | 1 | 2.3 | 3.5 | 135 | 8.7 | 871 | 479 | 2.6 | 8.9 | 14 | 200 | 0.55 | –
